Assay results taken from article PMC6691884 (Journal of Enzyme Inhibition and Medicinal Chemistry, 2019).

biological target: T1, FtuCA (Francisella tularensis, UniProt Q5NH77); conditions: activation constant (not association constant); activator; CO2 substrate; 10 mM Tris pH 8.4, 0.1 M Na2SO4, 25 °C; 15 min pre-incubation
T1 construct: gene cynT
T1 sequence (Q5NH77 1-228): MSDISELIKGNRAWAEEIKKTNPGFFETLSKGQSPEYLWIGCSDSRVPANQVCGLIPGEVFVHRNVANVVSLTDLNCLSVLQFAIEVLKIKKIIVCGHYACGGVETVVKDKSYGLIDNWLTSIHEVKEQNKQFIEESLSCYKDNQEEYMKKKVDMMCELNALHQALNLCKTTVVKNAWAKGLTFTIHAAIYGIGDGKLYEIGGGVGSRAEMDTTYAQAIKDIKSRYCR

Row | SMILES | KA (μM)^a / FtuCA^c [µM]
1 | N[C@@H](Cc1cnc[nH]1)C(=O)O [compound 1, L-His] | 40.7
2 | N[C@H](Cc1ccc(O)c(O)c1)C(=O)O [compound 6, D-DOPA] | 44.8
3 | N[C@@H](Cc1c[nH]c2ccccc12)C(=O)O [compound 7, L-Trp] | 34.1
4 | N[C@H](Cc1c[nH]c2ccccc12)C(=O)O [compound 8, D-Trp] | 30.5
5 | NCc1ccccn1 [compound 15, 2-Pyridyl-methylamine] | 46.3
6 | NCCN1CCNCC1 [compound 17, 1-(2-Aminoethyl)-piperazine] | 51.8
7 | N[C@@H](CCC(=O)O)C(=O)O [compound 22, L-Glu] | 9.13
8 | NC(=O)CC[C@H](N)C(=O)O [compound 24, L-Gln] | 45.7

biological target: T2, BsuCA 1 (Brucella suis, UniProt A0A0H3GDA4); conditions: activation constant (not association constant); activator; CO2 substrate; 10 mM Tris pH 8.4, 0.1 M Na2SO4, 25 °C; 15 min pre-incubation
T2 construct: gene BS1330_I1823
T2 sequence (A0A0H3GDA4 1-213): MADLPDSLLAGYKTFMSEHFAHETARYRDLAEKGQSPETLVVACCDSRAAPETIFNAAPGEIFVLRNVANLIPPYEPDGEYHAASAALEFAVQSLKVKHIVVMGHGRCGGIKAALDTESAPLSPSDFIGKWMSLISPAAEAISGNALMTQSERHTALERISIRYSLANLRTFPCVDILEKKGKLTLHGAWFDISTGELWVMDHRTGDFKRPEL

Row | SMILES | KA (μM)^a / BsuCA1 ^c [µM]
9 | N[C@@H](Cc1cnc[nH]1)C(=O)O [compound 1, L-His] | 1.76
10 | N[C@H](Cc1ccccc1)C(=O)O [compound 4, D-Phe] | 1.21
11 | N[C@@H](Cc1ccc(O)c(O)c1)C(=O)O [compound 5, L-DOPA] | 2.07
12 | N[C@@H](Cc1c[nH]c2ccccc12)C(=O)O [compound 7, L-Trp] | 1.25
13 | N[C@@H](Cc1ccc(O)cc1)C(=O)O [compound 9, L-Tyr] | 1.38
14 | N[C@H](Cc1ccc(O)cc1)C(=O)O [compound 10, D-Tyr] | 0.95
15 | Nc1ccc(C[C@H](N)C(=O)O)cc1 [compound 11, 4-H2N-L-Phe] | 1.18
16 | NCCc1ccc(O)c(O)c1 [compound 13, Dopamine] | 1.54
17 | NCc1ccccn1 [compound 15, 2-Pyridyl-methylamine] | 1.62
18 | CNC[C@H](O)c1ccc(O)c(O)c1 [compound 19, L-Adrenaline] | 0.70
19 | N[C@H](CCC(=O)O)C(=O)O [compound 23, D-Glu] | 1.39
